Results taken from patent US20140065070A1, “METHODS OF PREPARING TRIAZOLE-CONTAINING RADIOIODINATED COMPOUNDS” (MCMASTER UNIVERSITY, priority 2012, published 2014).

Experiments:
[1] = Log D pH 7.4 measurement (n-octanol/PBS); assay type: physicochemical; conditions: n-octanol/PBS pH 7.4
Protocol: The samples were vortexed for 20 min and centrifuged at 6000 rpm for 5 min. Aliquots (0.1 mL) were subsequently removed from both the aqueous and the organic n-octanol layers and counted separately in a γ counter (Wallac Wizard 1470 automatic γ counter). Measurements represent three separate experiments with four extractions in each set for a total of twelve data points. The partition coefficients were then calculated using the equation D=(activity concentration in n-octanol)/(activity concentration in aqueous layer).

LNCaP xenografts = assay: Biodistribution study of 123I-TAAG-PSMA in NCr nude mice bearing LNCaP xenografts; assay type: in vivo, NCr nude mice
Protocol: LNCaP cells derived from lymph node metastases of human prostate carcinoma were purchased from ATCC. Cells were propagated using RPMI 1640 media supplemented with 10% Fetal Bovine Serum, 4 mM L-glutamine, 1 mM Sodium Pyruvate, 10 mM Hepes, 1% Penicillin Streptomycin (Invitrogen, Mississauga ON) and 0.25% D-glucose (Sigma, Oakville ON) and grown at 37° C. and 5% CO2. NCr nude homo male mice ordered from Taconic (Germantown, N.Y., USA) were injected with 2.0×10^6 LNCaP cells in 100 μL Matrigel/DPBS (1:1) subcutaneously into the right flank at 7 to 8 weeks of age. […] Animals were anesthetized with 3% isoflurane and euthanized by cervical dislocation. Blood, bone, liver, gall bladder, spleen, small intestine (with contents), large intestine and caecum (with contents), bladder, urine, skeletal muscle, brain, LNCaP tumour, heart, lung, salivary glands, kidneys, stomach (with contents), prostate, thyroid/trachea, adrenals, esophagus, tail, adipose and testes were collected, weighed and counted in a Perkin Elmer Wizard 1470 Automatic Gamma Counter. Decay correction was used to normalize organ activity measurements to time of dose preparation for data calculations with respect to injected dose (i.e. % ID/g).

LNCaP tumours = assay: SPECT-CT imaging study of 123I-TAAG-PSMA; assay type: in vivo, NCr mice
Protocol: Prior to imaging, mice were anaesthetized with 2.5% isoflurane and maintained under same conditions for the length of the SPECT and CT scans. Imaging was conducted on the first mouse at 2 and 6 hours post injection and on the second mouse at 4 and 23 hours post injection. At each time point, multiple SPECT acquisitions were completed for 32 frames at 10 sec/frame for the 2 hour time point, 20 sec/frame for the 4 and 6 hour time point or 30 sec/frame for the 23 hour time point on a GammaMedica Ideas X-SPECT system (North Ridge, Calif.). CT acquisitions consisted of 512 projections acquired over 360° with 75 Kvp, 205 mA cone beam CT system. Cobra Exxim software (Feldkamp filtered backprojection cone beam reconstruction software) was used to reconstruct the images at a voxel size of 155 microns and a matrix size of 512^3. An OS-EM interactive reconstructed method (2 iterations/8 subsets) was used to reconstruct the SPECT data which was fused to the CT data using in-house software. AMIDE software was used to analyze the images.

[2] = Stability of I-TAAG construct in solution; assay type: physicochemical; conditions: 48 hours
Protocol: Reactions were complete within 10 min and the product was isolated by solid-phase extraction or semi-preparative HPLC.

[3] = Biodistribution study of 123I-TAAG in normal Balb/c mice; assay type: in vivo; conditions: tail vein injection
Description: Animals were anesthetized with 3% isoflurane and euthanized by cervical dislocation. Blood, heart, lungs, liver, spleen, kidneys, adrenals, stomach (with contents), large intestine and caecum (with contents) and small intestines (with contents), bladder and urine, thyroid/trachea, bone, skeletal muscle and tail were collected, weighed and counted in a Perkin Elmer Wizard 1470 Automatic Gamma Counter. Decay correction was used to normalize organ activity measurements to time of dose preparation for data calculations with respect to injected dose (i.e. % ID/g).

[4] = at pH 7.4; comparison value; cited from earlier work
[5] = 1 hr + block (PMPA 10 mg/kg), NCr nude mice bearing LNCaP xenografts, mean ± SEM
[6] = male, NCr nude, mouse, in vivo, 1 h
[7] = male, NCr nude, mouse, in vivo, 23 h
[8] = male, NCr nude, mouse, in vivo, 24 h

O=C(O)CC[C@H](NC(=O)N[C@@H](CCCCNC(=O)Cn1cc(I)nn1)C(=O)O)C(=O)O [^123I-TAAG-PSMA, (S)-2-(3-((S)-1-carboxy-5-(2-(4-iodo-1H-1,2,3-triazol-1-yl)acetamido)pentyl)ureido)pentanedioic acid]
logD [1]: -3.23 ± 0.05 | Tissue distribution, Adipose (LNCaP xenografts; [5]): 0.35 ± 0.21 % ID/g | Tissue distribution, Adrenals (LNCaP xenografts; [5]): 3.34 ± 1.49 % ID/g | Tissue distribution, Bladder (LNCaP xenografts; [5]): 10.78 ± 4.16 % ID/g | Tissue distribution, Blood (LNCaP xenografts; [5]): 0.32 ± 0.06 % ID/g | Tissue distribution, Bone (LNCaP xenografts; [5]): 0.26 ± 0.02 % ID/g | Tissue distribution, Brain (LNCaP xenografts; [5]): 0.05 ± 0.02 % ID/g | Tissue distribution, Esophagus (LNCaP xenografts; [5]): 0.32 ± 0.04 % ID/g | Tissue distribution, Gall Bladder (LNCaP xenografts; [5]): 1.32 ± 0.53 % ID/g | Tissue distribution, Heart (LNCaP xenografts; [5]): 0.15 ± 0.04 % ID/g | Tissue distribution, Kidneys (LNCaP xenografts; [5]): 9.57 ± 5.17 % ID/g | Tissue distribution, Large Intestine + Caecum (LNCaP xenografts; [5]): 0.12 ± 0.03 % ID/g | Tissue distribution, Liver (LNCaP xenografts; [5]): 2.25 ± 0.29 % ID/g | Tissue distribution, Lung (LNCaP xenografts; [5]): 0.36 ± 0.08 % ID/g | Tissue distribution, Prostate (LNCaP xenografts; [5]): 3.85 ± 2.91 % ID/g | Tissue distribution, Salivary Glands (LNCaP xenografts; [5]): 0.52 ± 0.12 % ID/g | Tissue distribution, Skeletal Muscle (LNCaP xenografts; [5]): 0.19 ± 0.03 % ID/g | Tissue distribution, Small Intestine (LNCaP xenografts; [5]): 0.30 ± 0.09 % ID/g | Tissue distribution, Spleen (LNCaP xenografts; [5]): 0.13 ± 0.03 % ID/g | Tissue distribution, Stomach (LNCaP xenografts; [5]): 0.49 ± 0.07 % ID/g | Tissue distribution, Testes (LNCaP xenografts; [5]): 1.16 ± 1.05 % ID/g | Tissue distribution, Thyroid/Trachea (LNCaP xenografts; [5]): 0.62 ± 0.24 % ID/g | Tissue distribution, Urine (LNCaP xenografts; [5]): 486.70 ± 163.60 % ID/g | Tissue distribution, Adipose (LNCaP xenografts; [6]): 1.73 ± 0.26 % ID/g | Tissue distribution, Adrenals (LNCaP xenografts; [6]): 8.45 ± 2.13 % ID/g | Tissue distribution, Bladder (LNCaP xenografts; [6]): 1.78 ± 0.23 % ID/g | Tissue distribution, Blood (LNCaP xenografts; [6]): 0.81 ± 0.07 % ID/g | Tissue distribution, Bone (LNCaP xenografts; [6]): 0.41 ± 0.07 % ID/g | Tissue distribution, Brain (LNCaP xenografts; [6]): 0.06 ± 0.01 % ID/g | Tissue distribution, Esophagus (LNCaP xenografts; [6]): 1.3 ± 0.26 % ID/g | Tissue distribution, Gall Bladder (LNCaP xenografts; [6]): 1.28 ± 0.26 % ID/g | Tissue distribution, Heart (LNCaP xenografts; [6]): 0.85 ± 0.29 % ID/g | Tissue distribution, Kidneys (LNCaP xenografts; [6]): 137.54 ± 11.43 % ID/g | Tissue distribution, Large Intestine + Caecum (LNCaP xenografts; [6]): 0.27 ± 0.06 % ID/g | Tissue distribution, Liver (LNCaP xenografts; [6]): 2.32 ± 0.28 % ID/g | Tissue distribution, Lung (LNCaP xenografts; [6]): 2.58 ± 0.46 % ID/g | Tissue distribution, Prostate (LNCaP xenografts; [6]): 1.89 ± 0.62 % ID/g | Tissue distribution, Salivary Glands (LNCaP xenografts; [6]): 2.97 ± 0.95 % ID/g | Tissue distribution, Skeletal Muscle (LNCaP xenografts; [6]): 0.33 ± 0.04 % ID/g | Tissue distribution, Small Intestine (LNCaP xenografts; [6]): 0.64 ± 0.13 % ID/g | Tissue distribution, Spleen (LNCaP xenografts; [6]): 4.98 ± 1.31 % ID/g | Tissue distribution, Stomach (LNCaP xenografts; [6]): 0.90 ± 0.07 % ID/g | Tissue distribution, Testes (LNCaP xenografts; [6]): 0.69 ± 0.10 % ID/g | Tissue distribution, Thyroid/Trachea (LNCaP xenografts; [6]): 1.46 ± 0.3 % ID/g | Tissue distribution, Urine (LNCaP xenografts; [6]): 43.99 ± 5.54 % ID/g | Tumor to tissue ratio, Tumour/blood (LNCaP xenografts; [6]): 28.22 ± 7.12 | Tumor to tissue ratio, Tumour/skeletal muscle (LNCaP xenografts; [6]): 78.06 ± 30.62 | activity retained in the tumour (LNCaP xenografts; [7]): 15 % ID/g | remaining activity in the thyroid (LNCaP xenografts; [7]): about 10 % ID/g | Tissue distribution, Adipose (LNCaP xenografts; [8]): 0.02 ± 0.01 % ID/g | Tissue distribution, Adrenals (LNCaP xenografts; [8]): 0.33 ± 0.07 % ID/g | Tissue distribution, Bladder (LNCaP xenografts; [8]): 0.08 ± 0.02 % ID/g | Tissue distribution, Blood (LNCaP xenografts; [8]): 0.01 ± 0.00 % ID/g | Tissue distribution, Bone (LNCaP xenografts; [8]): 0.04 ± 0.01 % ID/g | Tissue distribution, Brain (LNCaP xenografts; [8]): 0.03 ± 0.00 % ID/g | Tissue distribution, Esophagus (LNCaP xenografts; [8]): 0.07 ± 0.01 % ID/g | Tissue distribution, Gall Bladder (LNCaP xenografts; [8]): 0.19 ± 0.08 % ID/g | Tissue distribution, Heart (LNCaP xenografts; [8]): 0.01 ± 0.00 % ID/g | Tissue distribution, Kidneys (LNCaP xenografts; [8]): 0.99 ± 0.27 % ID/g | Tissue distribution, LNCap Tumour (LNCaP xenografts; [8]): 15.31 ± 4.23 % ID/g | Tissue distribution, Large Intestine + Caecum (LNCaP xenografts; [8]): 0.04 ± 0.01 % ID/g | Tissue distribution, Liver (LNCaP xenografts; [8]): 0.03 ± 0.01 % ID/g | Tissue distribution, Lung (LNCaP xenografts; [8]): 0.01 ± 0.00 % ID/g | Tissue distribution, Prostate (LNCaP xenografts; [8]): 0.09 ± 0.03 % ID/g | Tissue distribution, Salivary Glands (LNCaP xenografts; [8]): 0.05 ± 0.01 % ID/g | Tissue distribution, Skeletal Muscle (LNCaP xenografts; [8]): 0.01 ± 0.00 % ID/g | Tissue distribution, Small Intestine (LNCaP xenografts; [8]): 0.02 ± 0.01 % ID/g | Tissue distribution, Spleen (LNCaP xenografts; [8]): 0.03 ± 0.00 % ID/g | Tissue distribution, Stomach (LNCaP xenografts; [8]): 0.07 ± 0.03 % ID/g | Tissue distribution, Testes (LNCaP xenografts; [8]): 0.01 ± 0.00 % ID/g | Tissue distribution, Thyroid/Trachea (LNCaP xenografts; [8]): 9.36 ± 1.05 % ID/g | Tissue distribution, Urine (LNCaP xenografts; [8]): 1.04 ± 0.39 % ID/g | Tumor to tissue ratio, Tumour/blood (LNCaP xenografts; [8]): 1867 ± 499.72 | Tumor to tissue ratio, Tumour/skeletal muscle (LNCaP xenografts; [8]): 1531 ± 422.74 | SPECT-CT image uptake (LNCaP tumours; 23-24 hours post injection): the activity was found only in the tumour and in the thyroid | SPECT-CT image uptake (LNCaP tumours; two hours post injection): uptake of the agent in the kidneys, bladder and a small amount in the tumour

O=C(O)Cn1cc(I)nn1 [^123I-TAAG, 2-(4-iodo-1H-1,2,3-triazol-1-yl)acetic acid]
logD [1]: -2.58 ± 0.01 | stability in solution [2]: stable over 48 hours in solution with no signs of deiodination | clearance from organs (biodistribution) [3]: clears all major organs quickly and collects in the bladder within 30 minutes

O=C(O)c1ccc(I)cc1 [p-iodobenzoic acid]
log D [4]: 0.07
